Measurements as given in US10961234B2, “Oxazole derivatives for use in the treatment of cancer” (LIFEARC, priority 2016, dated 2021).

How the values were obtained:
WT full length PAICS = biological target: T1, WT full length PAICS (Homo sapiens, UniProt P22234); assay: Biochemical assay to measure PAICS activity (Transcreener ADP2 FI, SAICAR synthetase reaction); details: PAICS 2.5 nM, 30 mins pre-incubation, ADP detection by fluorescence intensity
T1 construct: 5 μl WT full length PAICS (final assay concentration, fac, 2.5 nM) in basic buffer
T1 sequence (P22234 1-425): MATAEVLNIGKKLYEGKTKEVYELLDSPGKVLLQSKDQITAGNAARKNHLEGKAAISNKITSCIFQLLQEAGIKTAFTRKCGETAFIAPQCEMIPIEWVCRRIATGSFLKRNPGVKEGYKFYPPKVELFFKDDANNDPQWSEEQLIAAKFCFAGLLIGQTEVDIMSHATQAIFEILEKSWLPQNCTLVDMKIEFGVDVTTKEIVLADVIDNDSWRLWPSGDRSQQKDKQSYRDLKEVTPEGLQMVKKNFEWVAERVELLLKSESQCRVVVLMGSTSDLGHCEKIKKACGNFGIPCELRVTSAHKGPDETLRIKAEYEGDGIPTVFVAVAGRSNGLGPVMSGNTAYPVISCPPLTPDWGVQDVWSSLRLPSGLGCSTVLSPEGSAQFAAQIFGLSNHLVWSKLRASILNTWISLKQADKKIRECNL
Description: The biochemical assay was used to measure PAICS SAICAR synthetase-mediated conversion of CAIR, aspartic acid and ATP to SAICAR, ADP and inorganic phosphate (PI), post-AIR/CAIR equilibration (see FIG. 3). This was achieved by detecting the ADP generated during the reaction, using Bellbrook Lab's Transcreener ADP^2 FI assay. An increase in the fluorescence intensity is directly proportional to the amount of PAICS activity.
The Transcreener ADP^2 FI assay is a homogeneous competitive displacement fluorescence intensity assay which uses direct immunodetection of ADP. Displacement of the tracer by ADP causes an increase in the fluorescence at excitation 590 nm and emission 617 nm (FIG. 3).
5 μl WT full length PAICS (final assay concentration, fac, 2.5 nM) in basic buffer, added to black, non-binding, 384-well plates (Corning #3575), columns 1 to 22.5 μl basic buffer was added to columns 23+24 (negative control). PAICS stock at 31.9 μM from the PI's lab (Steve Firestine). Basic buffer contained 50 mM Tris-HCl pH8 and 0.5 mM EDTA, fac.
1 μl compound in 100% DMSO added per well, or 1 μl 100% DMSO to positive controls (columns 1+2) and negative controls (columns 23+24). Final assay top concentration of compound either 1 mM or 30 μM, serially diluted with half-log dilutions across the plate in duplicate (one 10-point concentration response curve across wells 3 to 12, another across 13 to 22). Compounds pre-incubated with PAICS enzyme for 30 mins at RT.
2 μl CAIR added (fac 10 μM) in basic buffer plus 25 mM MgCl2 and 50 mM KHCO3 fac to all wells. CAIR stock 50 mM from Steve Firestine's lab. 1 hr RT incubation for AIR-CAIR equilibration. NB: ˜50% CAIR is decarboxylated during equilibration therefore 5 μM remains for the synthetase reaction.
2 μl ATP/aspartic acid added (fac 30 μM/180 μM) in reaction buffer to all wells. 30 mins RT incubation for appropriate level of ATP turnover. Reaction buffer contained basic buffer plus 10 mM DTT, 0.01% BSA and 0.01% Brij 35, fac.
10 μl ADP detection reagent added to all wells (as per instructions, Transcreener ADP^2 FI kit, BellBrook Labs #3013-10K). Incubation for 1 h at RT to allow antibody equilibration. Fluorescence intensity determined using a Tecan Safire2 (excitation at 590 nm, emission at 617 nm).

[1] = test system: LM2 and MDA-MB-231 breast cancer cell lines; assay: PAICS 2D cell proliferation assay; format: cell-based; details: Homo sapiens; 72 hours incubation; cell line (LM2 or MDA-MB-231) not given
Description: Frozen cryovial stocks of LM2 and MDA-MB-231 breast cancer cell lines were thawed and cultured in 4.5 g/L glucose DMEM (31966-047, Invitrogen) supplemented with 10% Fetal Bovine Serum (10500-064, Invitrogen) until confluent in a T175 flask. Cells were incubated at 37° C. with 5% CO2 in a humidified incubator.
Cells were collected from T175 flasks by washing with PBS (10010-056, Invitrogen) and dissociated using Accutase (A6964, Sigma Aldrich). This was followed by centrifuging (1200 rpm, 5 min) and resuspending the cells in 10 ml of media containing 1% penicillin/streptomycin (15140-122, Invitrogen). Cells were counted by trypan blue exclusion method using an automated cell counter (Cellometer) and diluted to a concentration of 40,000/ml. 1000 cells were then seeded into 384-well white-walled plates (Corning, 3707) in a volume of 25 μl. Plates were incubated overnight at 37° C. with 5% CO2.
After 24 hours, PAICS compounds were added onto the assay plates using an HP D300 Digital Dispenser (Hewlett Packard). 10 mM stocks were used and dispensed as a 10 point concentration response curve (CRC) ½ log dilution series with a final top concentration of 100 μM. Controls were added onto each plate: positive controls included Staurosporine CRC (100 μM stock dispensed as a 10 point CRC ½ log dilution series with a final top concentration of 1 μM) and PAICS compound MRT00211919 (10 mM stock dispensed as a 10 point CRC ½ log dilution series with a final top concentration of 100 μM); a high control of Staurosporine (0.1 μM (LM2), 0.316 μM (MDA-MB-231) FAC) and a low control of media containing 1% DMSO. A final concentration of 1% DMSO was then added across the plates for normalisation. Following compound addition, assay plates were incubated for 72 hours at 37° C. with 5% CO2.
After 72 h incubation, dead and viable cells were measured in each assay plate. Cytotoxicity was assessed through fluorescent DNA staining using the CellTox™ Green Cytotoxicity Assay kit (G8743, Promega) following the manufacturer's multiplexing protocol. Impaired cell membrane integrity results in the access of dye to stain DNA allowing quantification of dead cells. Cell viability was determined following ATP quantification using the CellTiter-Glo® Luminescent Cell Viability Assay kit (G7572, Promega) following the manufacturer's protocol. ATP released from lysed cells allowed for the generation of a signal proportional to the number of cells present in the well. All endpoint reads were performed using the PheraSTAR Plus (BMG Labtech). Data is expressed as % viable cells and % dead cells against controls (mean±SEM of duplicate curves).

| IC50 (WT full length PAICS) | EC50 [1] | Structure (SMILES) |
| --- | --- | --- |
| < 10 nM | < 100 nM | CNC1CCC(n2cc(-c3ccc(Cl)c(NC(=O)c4coc(N)n4)c3)cn2)CC1 (mixture of isomers) [Example 80, 2-Amino-N-(2-chloro-5-{1-[4-(methylamino)cyclohexyl]-1H-pyrazol-4-yl}phenyl)-1,3-oxazole-4-carboxamide] |
| 10 to 25 nM | 250 to 500 nM | Nc1nc(C(=O)Nc2cc(-c3ccc(CN4CCNCC4)cc3)ccc2Cl)co1 [Example 38, 2-Amino-N-[4-chloro-4′-(piperazin-1-ylmethyl)biphenyl-3-yl]-1,3-oxazole-4-carboxamide] |
| > 100 nM | 250 to 500 nM | Nc1nc(C(=O)Nc2cc(-c3ccc(N4CCNCC4)cc3)ccc2Cl)co1 [Example 39, 2-Amino-N-[4-chloro-4′-(piperazin-1-yl)biphenyl-3-yl]-1,3-oxazole-4-carboxamide] |
| 25 to 100 nM | 250 to 500 nM | Nc1nc(C(=O)Nc2cc(-c3cnn(C4CCNCC4)c3)ccc2Cl)co1 [Example 40] |
| 25 to 100 nM | 100 to 250 nM | Nc1nc(C(=O)Nc2cc(-c3cnn(C4CCNC4)c3)ccc2Cl)co1 (centres unmarked) [Example 41, 2-Amino-N-{2-chloro-5-[1-(pyrrolidin-3-yl)-1H-pyrazol-4-yl]phenyl}-1,3-oxazole-4-carboxamide] |
| > 100 nM | 100 to 250 nM | Nc1nc(C(=O)Nc2cc(-c3cnn(C4CCCNC4)c3)ccc2Cl)co1 (centres unmarked) [Example 42, 2-Amino-N-{2-chloro-5-[1-(piperidin-3-yl)-1H-pyrazol-4-yl]phenyl}-1,3-oxazole-4-carboxamide] |
| 25 to 100 nM | 100 to 250 nM | CN(C)CCCn1cc(-c2ccc(Cl)c(NC(=O)c3coc(N)n3)c2)cn1 [Example 43, 2-Amino-N-(2-chloro-5-{1-[3-(dimethylamino)propyl]-1H-pyrazol-4-yl}phenyl)-1,3-oxazole-4-carboxamide] |
| > 100 nM | 100 to 250 nM | CN1CCC(n2cc(-c3ccc(Cl)c(NC(=O)c4coc(N)n4)c3)cn2)CC1 [Example 44, 2-Amino-N-{2-chloro-5-[1-(1-methylpiperidin-4-yl)-1H-pyrazol-4-yl]phenyl}-1,3-oxazole-4-carboxamide] |
| > 100 nM | 100 to 250 nM | CN1CC(n2cc(-c3ccc(Cl)c(NC(=O)c4coc(N)n4)c3)cn2)C1 [Example 45, 2-Amino-N-{2-chloro-5-[1-(1-methylazetidin-3-yl)-1H-pyrazol-4-yl]phenyl}-1,3-oxazole-4-carboxamide] |
| 10 to 25 nM | 100 to 250 nM | Nc1nc(C(=O)Nc2cc(-c3cnn(CCCNC4CC4)c3)ccc2Cl)co1 [Example 48, 2-Amino-N-(2-chloro-5-(1-(3-(cyclopropylamino)propyl)-1H-pyrazol-4-yl)phenyl)oxazole-4-carboxamide] |
| < 10 nM | < 100 nM | CNCCCn1cc(-c2ccc(Cl)c(NC(=O)c3coc(N)n3)c2)cn1 [Example 49, 2-Amino-N-(2-chloro-5-(1-(3-(methylamino)propyl)-1H-pyrazol-4-yl)phenyl)oxazole-4-carboxamide] |
| 10 to 25 nM | 100 to 250 nM | CNCCn1cc(-c2ccc(Cl)c(NC(=O)c3coc(N)n3)c2)cn1 [Example 50, 2-Amino-N-(2-chloro-5-(1-(2-(methylamino)ethyl)-1H-pyrazol-4-yl)phenyl)oxazole-4-carboxamide] |
| < 10 nM | 100 to 250 nM | Nc1nc(C(=O)Nc2cc(-c3cnn(CCCN4CCNCC4)c3)ccc2Cl)co1 [Example 51, 2-Amino-N-(2-chloro-5-(1-(3-(piperazin-1-yl)propyl)-1H-pyrazol-4-yl)phenyl)oxazole-4-carboxamide] |
| 10 to 25 nM | 100 to 250 nM | CN1CCN(CCCn2cc(-c3ccc(Cl)c(NC(=O)c4coc(N)n4)c3)cn2)CC1 [Example 52, 2-Amino-N-(2-chloro-5-(1-(3-(4-methylpiperazin-1-yl)propyl)-1H-pyrazol-4-yl)phenyl)oxazole-4-carboxamide] |
| – | < 100 nM | CN(C)CCCc1ncc(-c2ccc(Cl)c(NC(=O)c3coc(N)n3)c2)s1 [Example 85, 2-Amino-N-(2-chloro-5-{2-[3-(dimethylamino)propyl]-1,3-thiazol-5-yl}phenyl)-1,3-oxazole-4-carboxamide] |
| – | < 100 nM | CNC1CCCN(Cc2csc(-c3ccc(Cl)c(NC(=O)c4coc(N)n4)c3)n2)C1 (centres unmarked) [Example 96, 2-Amino-N-[2-chloro-5-(4-{[3-(methylamino)piperidin-1-yl]methyl}-1,3-thiazol-2-yl)phenyl]-1,3-oxazole-4-carboxamide] |
| – | 100 to 250 nM | CN(C)C1CCN(Cc2csc(-c3ccc(Cl)c(NC(=O)c4coc(N)n4)c3)n2)CC1 [Example 97, 2-Amino-N-[2-chloro-5-(4-{[4-(dimethylamino)piperidin-1-yl]methyl}-1,3-thiazol-2-yl)phenyl]-1,3-oxazole-4-carboxamide] |
| – | < 100 nM | CCN(CC)CCCOc1ncc(-c2ccc(Cl)c(NC(=O)c3coc(N)n3)c2)s1 [Example 98, 2-Amino-N-(2-chloro-5-{2-[3-(diethylamino)propoxy]-1,3-thiazol-5-yl}phenyl)-1,3-oxazole-4-carboxamide] |
| – | 100 to 250 nM | CSc1ccc(-c2cnc(OCCCN(C)C)s2)cc1NC(=O)c1coc(N)n1 [Example 99, 2-Amino-N-[5-{2-[3-(dimethylamino)propoxy]-1,3-thiazol-5-yl}-2-(methylsulfanyl)phenyl]-1,3-oxazole-4-carboxamide] |
| – | < 100 nM | CSc1ccc(-c2nc(CN3CCNCC3)cs2)cc1NC(=O)c1coc(N)n1 [Example 100, 2-Amino-N-{2-(methylsulfanyl)-5-[4-(piperazin-1-ylmethyl)-1,3-thiazol-2-yl]phenyl}-1,3-oxazole-4-carboxamide] |
| – | 100 to 250 nM | CN1CCN(c2ncc(-c3ccc(Cl)c(NC(=O)c4coc(N)n4)c3)s2)CC1 [Example 101, 2-Amino-N-{2-chloro-5-[2-(4-methylpiperazin-1-yl)-1,3-thiazol-5-yl]phenyl}-1,3-oxazole-4-carboxamide] |
